The values that follow are results of earlier work, collected in patent publication US20160101176A1, “POLYMERIC HYDROGEL PHARMACEUTICAL COMPOSITIONS WITH ON-DEMAND RELEASE OF A DRUG IN RESPONSE TO A ELECTRICAL STIMULUS” (UNIVERSITY OF THE WITWATERSRAND, JOHANNESBURG, priority 2013, published 2016).

One series deals with plasma proteins. The settings on record: Raveendran et al., 1992.
For series [1] the following is noted: rat's cardio-vascular system; Elahi et al., 2009.

Each structure is given as a SMILES string.

As for `COc1ccc2c(c1)c(CC(=O)O)c(C)n2C(=O)c1ccc(Cl)cc1` [indomethacin], the protein binding entry in the series on plasma proteins was “highly protein bound”. Also, the t1/2 in series [1] is 7 to 10 h.
